Assay [1] addresses H3K56Ac peptide. Briefly: ELISA; ELISA formatted binding study between histone H3 peptides and 15‐LOX‐1; concentrations up to 20 μM; Hill‐slopes equal 1; not told which partner was immobilised. A general note: ELISA stands for enzyme-linked immunosorbent assay.
Assay [2] concerns the target H3K4Ac peptide. The description is as above.
For assay [3], the target named is T1, 5-LOX (Homo sapiens, UniProt P09917).
T1 construct: the endogenous LOXs were captured on an anti‐LOX antibody precoated 96‐well plate; endogenous in cells; host or cells: A549 cell lysate
T1 sequence (P09917 1-674): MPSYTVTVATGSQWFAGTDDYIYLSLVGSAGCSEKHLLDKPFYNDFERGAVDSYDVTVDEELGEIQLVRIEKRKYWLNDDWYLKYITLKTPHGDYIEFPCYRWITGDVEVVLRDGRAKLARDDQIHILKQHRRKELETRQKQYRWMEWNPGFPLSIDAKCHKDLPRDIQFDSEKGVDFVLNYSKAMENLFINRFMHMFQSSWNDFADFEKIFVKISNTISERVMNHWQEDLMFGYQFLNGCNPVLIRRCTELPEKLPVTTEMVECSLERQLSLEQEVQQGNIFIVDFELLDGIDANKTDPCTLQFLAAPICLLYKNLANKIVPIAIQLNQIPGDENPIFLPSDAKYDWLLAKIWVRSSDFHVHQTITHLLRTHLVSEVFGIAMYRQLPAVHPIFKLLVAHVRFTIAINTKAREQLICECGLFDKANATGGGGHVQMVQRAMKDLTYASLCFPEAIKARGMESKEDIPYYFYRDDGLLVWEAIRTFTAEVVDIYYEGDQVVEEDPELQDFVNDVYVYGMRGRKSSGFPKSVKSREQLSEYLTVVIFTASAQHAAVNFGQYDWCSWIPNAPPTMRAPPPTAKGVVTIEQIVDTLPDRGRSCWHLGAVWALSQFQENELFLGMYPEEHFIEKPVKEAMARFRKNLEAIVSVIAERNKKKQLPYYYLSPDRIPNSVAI
Briefly: ABP-based ELISA assay with A549 cell lysate, 5-LOX. The format is biochemical. As for the experimental part:
(§1) A549 cell lysate was treated with a serial dilution of the respective inhibitor. Subsequently, samples were labeled by treatment with 1 μM of Labelox B for 1 min. […] Data are mean±s.d., n≥3 independent experiments. […]
(§2) 1.6. Immunoblotting Analysis […]
(§3) 1.7. ABPP-based LOX inhibitor specificity validation
(§4) A549 cells were lysed by RIPA buffer supplemented with 1x PIC. After sonication and centrifugation, the supernatant was collected, and the protein concentration was determined by a Pierce BCA Protein Assay Kit (Thermo Fisher Scientific, USA). The lysates were then diluted with PBS to 300 ng/µl and stored in -20°C. To label endogenous LOXs with Labelox B under the competition condition, 180 µl diluted lysates were incubated with 200 µl different LOX inhibitor solution (in PBS) with desired concentrations for 18 min to inhibit LOXs activity. Later, 20 µl of a 20 µM Labelox B (in PBS) was added and incubated shortly for 2 min, followed by adding 50 µl of a 0.5 M EDTA to stop the labeling reaction. The reaction mixture was 450 µl in total. Inhibitors and Labelox B were absent in positive and […]
(§5) negative control, respectively. To detect the competition labeling of Labelox B among different LOXs, a high-binding 96-well plate (Greiner, #M4561) was coated with 5-LOX (#ab169755, Abcam), 12-LOX […]
(§6) (1:500 dilution in PBS) for overnight at 4°C. After washing triply with 0.05%PBST, the plate was blocked with 2% (w/v) BSA in PBST. Subsequently, 100 µl of each reaction mixture was added to the LOX-antibody-coated wells. There are four LOX antibodies used for coating. Therefore, in total, 400 µl mixture is needed for each reaction. After one hour of incubation, LOXs were pulled down by antibodies accordingly. Next, 100 µl of HRP-conjugated streptavidin (1:2000 dilution in PBS, Thermo Fisher Scientific, USA) was added to each well to detect the D04 labeled LOXs among precipitated LOXs. After washing with PBST, 100 µl of mixed HRP substrate reagent (R&D Systems, Minneapolis, USA) was added, and the colorizing reaction was stopped by adding 100 µl of 1M sulfuric acid. The absorbance at […]

Assay [4] has as its target T2, 15-LOX-1 (Homo sapiens, UniProt P16050).
T2 sequence (P16050 1-662): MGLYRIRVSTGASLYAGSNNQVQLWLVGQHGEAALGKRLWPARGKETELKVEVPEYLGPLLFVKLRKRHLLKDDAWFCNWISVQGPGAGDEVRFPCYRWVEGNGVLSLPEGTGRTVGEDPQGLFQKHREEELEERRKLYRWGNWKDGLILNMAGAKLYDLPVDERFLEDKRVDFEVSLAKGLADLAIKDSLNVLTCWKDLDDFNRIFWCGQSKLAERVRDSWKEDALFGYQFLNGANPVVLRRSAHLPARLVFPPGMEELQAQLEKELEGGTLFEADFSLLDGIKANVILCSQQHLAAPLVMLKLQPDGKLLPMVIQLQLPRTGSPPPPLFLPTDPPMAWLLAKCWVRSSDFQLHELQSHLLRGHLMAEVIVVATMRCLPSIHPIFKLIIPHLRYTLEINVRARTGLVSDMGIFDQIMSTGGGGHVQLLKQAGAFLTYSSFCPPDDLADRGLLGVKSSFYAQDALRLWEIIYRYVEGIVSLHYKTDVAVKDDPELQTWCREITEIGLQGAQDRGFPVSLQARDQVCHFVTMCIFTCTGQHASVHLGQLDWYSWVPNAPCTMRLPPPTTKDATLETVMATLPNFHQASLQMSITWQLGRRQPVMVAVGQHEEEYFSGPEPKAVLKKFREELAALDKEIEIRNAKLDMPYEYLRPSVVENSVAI
Description: ABP-based ELISA assay with A549 cell lysate, 15-LOX-1. Further details: the endogenous LOXs were captured on an anti‐LOX antibody precoated 96‐well plate; endogenous in cells; host or cells: A549 cell lysate. The assay is classed as biochemical. The protocol: as §1, §2, §3, §4, §5, §6

Assay [5] addresses T3, 12-LOX (Homo sapiens, UniProt P18054).
T3 construct: the endogenous LOXs were captured on an anti‐LOX antibody precoated 96‐well plate; endogenous in cells; host or cells: A549 cell lysate
T3 sequence (P18054 1-663): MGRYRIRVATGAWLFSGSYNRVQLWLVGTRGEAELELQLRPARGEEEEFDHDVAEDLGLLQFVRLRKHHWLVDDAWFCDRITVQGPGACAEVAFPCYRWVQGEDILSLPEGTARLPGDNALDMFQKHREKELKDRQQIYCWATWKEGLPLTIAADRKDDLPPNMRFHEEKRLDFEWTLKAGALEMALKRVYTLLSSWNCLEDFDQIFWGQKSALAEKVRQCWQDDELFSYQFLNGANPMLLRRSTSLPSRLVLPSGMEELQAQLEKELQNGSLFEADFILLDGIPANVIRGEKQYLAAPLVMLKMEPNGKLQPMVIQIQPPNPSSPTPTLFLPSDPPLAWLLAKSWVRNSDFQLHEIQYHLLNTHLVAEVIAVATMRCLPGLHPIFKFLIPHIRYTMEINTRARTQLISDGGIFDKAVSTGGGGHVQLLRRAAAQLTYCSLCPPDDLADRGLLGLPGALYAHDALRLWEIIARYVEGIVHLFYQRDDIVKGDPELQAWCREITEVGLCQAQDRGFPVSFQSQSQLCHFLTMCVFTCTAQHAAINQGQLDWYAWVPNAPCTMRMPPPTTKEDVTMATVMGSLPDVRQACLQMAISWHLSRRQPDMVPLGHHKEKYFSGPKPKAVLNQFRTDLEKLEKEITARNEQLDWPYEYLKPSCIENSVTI
Briefly: ABP-based ELISA assay with A549 cell lysate, 12-LOX. The assay is classed as biochemical. As for the experimental part: as §1, §2, §3, §4, §5, §6

As usually defined, the Kd is the constant that tells how readily two partners part at equilibrium. A lower Kd goes with higher affinity. For the molecule “recombinant 15‐LOX‐1 (from UniProt P16050 1-662) (enzyme)”, the dissociation constant (Kd) in assay [1] is 1.65 µM; in assay [2], above 20 µM.

In general, IC50 refers to the concentration at which inhibition is half-maximal. A higher IC50 goes with a need for much substance. Regarding `CC(c1cc2ccccc2s1)N(O)C(N)=O` (stereo not drawn) [Zileuton], the entries for the “HillSlope Value” in assay [3] and in assay [5] were -0.48 and -0.47, respectively. For the same molecule, the “Effect on ABP labeling” value in assay [4] is reported as “little or no effect”. For the same molecule, it took 554 µM to reach half-maximal inhibition in assay [5] (1 μM Labelox B) (IC50).

The values above are taken from article PMC8518382, “Identification of a Bromodomain‐like Region in 15‐Lipoxygenase‐1 Explains Its Nuclear Localization” (Angewandte Chemie (International Ed. in English), 2021).
